From publication PMC3236199, “Development of Derivatives of 3, 3′-Diindolylmethane as Potent Leishmania donovani Bi-Subunit Topoisomerase IB Poisons” (PLoS ONE, 2011) come the findings set out here.

Molecules are shown by their SMILES.

Assay [1] has as its system L. donovani topoisomerase I. In words: Immunoband depletion assay, topoisomerase I. It counts as cell-based, Leishmania donovani. The following applies: preincubation with 20 µM DHBA before DIM, DPDIM, DMDIM or DMODIM. As for the experimental part:
Leishmania cells (3×10^7) were cultured in absence and presence of the drugs. Nuclear fractions were isolated as described. Briefly, cells were suspended in hypotonic buffer (10 mM Tris-HCl, pH 7.5, 1 mM EDTA, 0.1 mM EGTA, 1 mM PMSF, 1 mM benzamidine hydrochloride and 5 mM DTT) and homogenized. The homogenate was centrifuged for 10 min at 10,000 g. The pellets were washed and used as the source of nuclear fraction. Thereafter, the nuclear fractions were lysed with 1% SDS and subjected to SDS-PAGE (10%). The proteins were electrophoretically transferred to nitrocellulose membranes and immumobloting of immobilized proteins were carried out using a rabbit polyclonal antibody raised against LdTOP1S for topoisomerase I and ATPase domain of L. donovani topoisomerase II [8].
We have reported earlier that DIM induces topoisomerase I and not topoisomerase II-mediated cleavable complex formation in L. donovani. To investigate the ability of DIM derivatives to induce in vivo covalent complex formation between topoisomerase I and DNA in the Leishmania parasites we performed the immunoband depletion experiments with L. donovani promastigotes. Nuclear fractions were prepared from untreated as well as drug-treated promastigotes and subjected to SDS-PAGE. If topoisomerase I can form a covalent complex with genomic DNA inside the cells, then topoisomerase I-DNA cleavable complex cannot enter into the gel. […] The presence of topoisomerase I was detected by immunoblotting as described in ‘Materials and Methods’. It was observed that the immunoband of topoisomerase I disappeared in presence of 20 µM of DIM, DPDIM, DMDIM and DMODIM for 6 h incubation respectively (lanes 2–5). […] It should be mentioned here that topoisomerase I of Leishmania is a heterodimer and the catalytic site (SKXXY) is present in the small subunit of enzyme (LdTOP1S), which is involved in the formation of topoisomerase I-DNA covalent complex. So we have used the antibody raised against the small subunit of L. donovani topoisomerase I to study the immunoband depletion assay.
Figure 6 DIM-derivatives induce in vivo formation of topoisomerase-DNA cleavable complex within the cells. Stabilization of topoisomerase-I mediated cleavable complex was determined by immunoband depletion assay. Top panel: Immunoband depletion of L. donovani topoisomerase I, using an antibody raised against […]. Leishmanial cells were treated with 0.2% DMSO alone (lane 1), 20 µM each of DIM (lane 2), DPDIM (lane 3), DMDIM (lane 4) and DMODIM (lane 5) respectively. Lanes 6–9, preincubation with 20 µM DHBA before treatment with DIM, DPDIM, DMDIM and DMODIM respectively. Bottom panel: β-tubulin loading control.

In a further assay the test system is LdTOP1LS. Nature of the assay: Plasmid cleavage assay. It counts as biochemical, Leishmania donovani. The following applies: 50 µM, pHOT1 DNA. Here is the method: Cleavage assay was carried out as described previously. Briefly, 50 fmol of pHOT1 supercoiled DNA (containing topoisomerase I cleavage site) and 100 fmol of reconstituted LdTOP1LS were incubated in standard reaction mixture (50 µl) containing 50 mM Tris/HCl (pH 7.5), 100 mM KCl, 10 mM MgCl2, 0.5 mM DTT, 0.5 mM EDTA and 30 µg/ml BSA in the presence of various concentrations of drugs at 37°C for 30 min. The reactions were terminated by adding 1% SDS and 150 µg/ml proteinase K and further incubated for 1 h at 37°C. DNA samples were electrophoresed in a 1% agarose gel containing 0.5 µg/ml EtBr.
The effect of DIM and its derivatives on L. donovani topoisomerase I was examined by plasmid DNA cleavage assay as described. The topoisomerase reaction has three general mechanistic steps: (i) binding of enzyme to the substrate DNA, (ii) single strand breakage and subsequent strand rotation through the break leading to change in linking number, and (iii) strand religation. The second step of reaction is the introduction of a single-stranded nick in the phosphodiester bond of the DNA, through which an intact strand is allowed to pass. […]

For `CC(C)[C@@H]1CC[C@]2(C(=O)O)CC[C@]3(C)C(CCC4[C@@]5(C)CC[C@H](O)C(C)(C)C5CC[C@]43C)C12` (some centres unmarked) [DHBA, reference compound], the “immunoband of topoisomerase I after preincubation before treatment with drugs” value in assay [1] is reported as “reappearance of immunoband”.

On to `CC[C@@]1(O)C(=O)OCc2c1cc1n(c2=O)Cc2cc3ccccc3nc2-1` [CPT, camptothecin, reference compound], for which the “conversion of closed circular DNA (form I) to nicked circular DNA (form II)” value with LdTOP1LS is “totally converted to nicked circular DNA”.
